Laboratory results reported in patent US20160193240A1, “Ulmoside-A: Useful For Prevention Or Cure Of Metabolic Diseases” (COUNCIL OF SCIENTIFIC & INDUSTRIAL RESEARCH, priority 2013, published 2016).

Tests used:
[1] = tested on: wistar rats; experiment: Dexamethasone-mediated imbalance in serum Na, K level in rats; format: in vivo, rat; conditions: Dex + Vehicle, 14 days
Description: Food intake was measured daily and the rats were weighed each week. The rats were fasted overnight (O/N) on day 14th and on day 15th oral glucose tolerance test was performed. Following oral glucose tolerance test (OGTT), rats were kept with food and water ad libitum for one day. On day 16th, rats were fasted again O/N and then euthanized. At autopsy, from 5 animals/group, tissues were collected and snap frozen in liquid nitrogen. Blood was collected from cardiac punctures. Plasma was separated from whole blood by centrifugation at 3000 rpm for 20 min immediately after collection of blood and stored at −80° C. until further analysis. Forelimb (quadriceps) skeletal muscles were processed for RNA and protein extraction, followed by quantitative real-time PCR (QRT-PCR) analysis. Two animals from each group were used for photography post autopsy.

[2] = tested on: wistar rats; experiment: Dexamethasone induced loss of body weight and death in rats; conditions: Dex alone (200 μg/kg IP), 2 weeks
Description: All animal experiments were conducted in accordance with current legislation on animal experiments [Institutional Animal Ethical Committee (IAEC)] at C.D.R.I. In all animal experiments, rats were individually housed at 21° C., in 12-h light:12-h dark cycles. All animals had access to normal chow diet and water ad libitum.
(§1) Food intake was measured daily and the rats were weighed each week. The rats were fasted overnight (O/N) on day 14th and on day 15th oral glucose tolerance test was performed. Following oral glucose tolerance test (OGTT), rats were kept with food and water ad libitum for one day. On day 16th, rats were fasted again O/N and then euthanized. At autopsy, from 5 animals/group, tissues were collected and snap frozen in liquid nitrogen. Blood was collected from cardiac punctures. Plasma was separated from whole blood by centrifugation at 3000 rpm for 20 min immediately after collection of blood and stored at −80° C. until further analysis. […] (quadriceps) skeletal muscles were processed for RNA and protein extraction, followed by quantitative real-time PCR (QRT-PCR) analysis. Two animals from each group were used for photography post autopsy.

[3] = tested on: wistar rats; experiment: Dexamethasone-mediated reduction of food intake in rats; format: in vivo, rat; conditions: Dex alone 200 μg/kg IP
Description: Six to eight week old wistar rats (n=6 per group) were housed separately and treated as indicated in the example. Daily food intake was measured and plotted. […] Data represents mean+/−SEM.
(§2) Blood was collected from cardiac punctures.
Food intake was measured every alternate day by giving measured food to each cage in evening (5.00 PM) and collection of residual food in next morning (9.00 AM) and measuring it. The residual food was subtracted from the food given and plotted.

[4] = tested on: wistar rats; experiment: Dexamethasone-mediated reduction in serum osteocalcin in rats (ELISA); format: in vivo, rat; conditions: Dex alone, 14 days
Description: as §1

[5] = tested on: wistar rats; experiment: Dexamethasone-induced skeletal muscle atrophy in rats (limb appearance, QRT-PCR of PGC-1α and atrogenes); format: in vivo, rat; conditions: Dex alone
Description: Following 15 d indicated treatment of rats, the skeletal muscle (pulled hind limb) were collected and RNA was extracted from them and QRT-PCR was performed in a Roche lightcycler 480 machine. Data represents mean+/−SEM from six animals done in triplicates. “a” statistical analysis between Vehicle and Dexamethasone-treated groups, “b”, statistical analysis between dex-treated and dex+ ULMA groups. P<0.05, as determined by student's t-test, n=6.
as §2
RNA was isolated from skeletal muscles using Trizol (according to manufacturers' protocol) and reverse transcribed as described above and either PGC-1α expression or muscle atrophy related genes (atrogenes) expression were examined.

[6] = tested on: GAL-PPARα; experiment: PPARα activation assay (GAL-PPARα / GAL4-Luc reporter) in HEK293 cells expressing endogenous AdipoR1; format: cell-based, human; conditions: 100 pM GW-7647 alone, 6 hours, HEK293
Description: A. ULMA enhances PPARα ligand activity; HEK293 cells were seeded on to 24 well plates and after 24 h, transfected with 100 ng of GAL-PPARα and 100 ng GAL4-Luc along with 100 ng eGFPC1 (Clontech) plasmids using lipofectamine LTX (Invitrogen) according to manufacturer's instructions. 24 h after transfection, cells were treated with or without 100 pM GW-7647 alone or in combination with 100 nM ULMA or 1 μg/ml globular adiponectin (gAd) for 6 h. Following which, the cells were lysed and GFP fluorescence and firefly luciferase activities were measured. Luciferase activity was normalized with GFP fluorescence and plotted as fold activity over vehicle (0.1% DMSO) treated control. Data shown in mean±SEM of three independent experiments performed in duplicates. *p<0.05 as determined by two tailed unpaired student's t-test.
The potential of ULMA to activate adiponectin receptor signaling was evaluated using a PPARα activation assay. […] 24 hours following plating, these cells were transfected with 100 ng of GAL-PPARα (PPARα cDNA fused with GAL4 DNA binding domain) and 100 ng GAL4 upstream activation sequence driven luciferase (GAL4-Luc) reporter gene that is capable of binding to any protein fused to GAL4-DNA binding domain (in this case GAL-PPARα) and 100 ng Green fluorescence expressing plasmid (GFP) that was used as an internal control, using lipofectamine LTX transfection reagent (Invitrogen) according to manufacturers' instructions. […] The cells were then lysed and luciferase activity was measured in a Promega GloMax luminometer using steady Glo luciferase assay kit (Promega) according to manufacturers' instructions; and GFP fluorescence was measured in a fluorimeter (Polarstar Galaxy, BMG Labtech). […]

C[C@@H]1C[C@H]2[C@@H]3CCC4=CC(=O)C=C[C@]4(C)[C@@]3(F)[C@@H](O)C[C@]2(C)[C@@]1(O)C(=O)CO [Dex, Dexamethasone, reference compound]
K [1]: 3.47 ± 0.13 mM | Survival/group (%) [2]: 46.7% | food intake [3]: robust loss in food-intake | Osteocalcin [4]: 263.5 ± 6.4 ng/mL | appearance of denuded forelimb and hindlimb [5]: severe abnormality in the limbs | mRNA levels of atrogenes (Atrogin-1/MAFbx, MuRF1, Cathepsin L, Glul) in skeletal muscle [5]: robustly induced

CC(C)(Sc1ccc(CCN(CCCCC2CCCCC2)C(=O)NC2CCCCC2)cc1)C(=O)O [GW-7647, reference compound]
increase of luciferase activity over vehicle-treated controls [6]: 2 folds
